The record followed here is US20230255954A1, “INTERLEUKIN 33 (IL-33) INHIBITION FOR TREATMENT OF CANCER, FIBROSIS AND INFLAMMATION” (The General Hospital Corporation, priority 2020, published 2023).

Assay [1] deals with p-IRF3 bindings to Il33 promoter region. Description: ChIP assay, p-IRF3 binding to Il33 promoter region in Pam212 cells. It is filed as cell-based, mouse. To be noted: compared to only Poly (I:C) treated group. The procedure:
Pam212 cells that had been transfected with plasmids were fixed in 1% formaldehyde (Millipore Sigma, catalog no. F8775) for 10 min and were washed by cold PBS. Cells were lysed with buffer contained with 2.5% of glycerol, 50 mM HEPES (pH 7.5), 150 mM NaCl, 0.5 mM EDTA, 0.5% NP-40 and 0.25% Triton X-100. After centrifugation at 2,000 rpm, cells lysate were resuspended in buffer A contained with 1 mM Tris/HCl (pH 7.9), 20 mM NaCl and 0.5 mM EDTA and incubated at room temperature for 10 min. Following the second centrifugation at 2,000 rpm, cells were sonicated in sonication buffer containing 10 mM HEPES, 1 mM EDTA and 0.5% SDS for 30 min to achieve chromatin fragmentation. Following centrifugation at 13,000 rpm, proteins were immunoprecipitated with HA antibody at 4° C. overnight. Next day, the samples were incubated with 30 μL 50% slurry of ChIP-Grade Protein G agarose beads (Cell Signaling Technology, catalog no. 9007S) for 2 hours. Samples were precipitated, washed three times with wash buffer containing 20 mM Tris/HCl (pH 7.9), 10 mM NaCl, 2 mM EDTA, 0.1% SDS and Triton X-100. After the last wash step, samples were eluted with 100 μL of TE buffer contained with 100 mM Tris/HCl (pH 8), 1 mM EDTA and 1% SDS for three times. […] Precipitated DNA was purified by CMP DNA Clean & Concentrator (ZYMO research, Irvine, Calif., catalog no. D5205) and subjected to quantitative PCR. […]

The subject of assay [2] is IL-33 protein in PyMT cells. The assay is described as follows: IL-33 protein levels in PyMT cells (western blot). It counts as cell-based, mouse. The conditions noted are these: dose range. How it is done:
Pam212 cells were grown at 37° C. in DMEM (Thermo Fisher Scientific, Waltham, Mass., catalog no. 11995065) supplemented with 10% fetal bovine serum (Thermo Fisher Scientific, catalog no. 26140079), 1× penicillin-streptomycin-glutamine (Thermo Fisher Scientific, catalog no. 10378016), 1×MEM non-essential amino acids solution (Thermo Fisher Scientific, catalog no. 11140050), 1×HEPES (Thermo Fisher Scientific, catalog no. 15630080) and 0.1% 2-Mercaptoethanol (Thermo Fisher Scientific, catalog no. 21985023). PyMT cell lines (derived from a primary breast tumor of MMTV-PyMrg mouse on a C57BL/6 background) were grown at 37° C. in RPMI Medium 1640 (Thermo Fisher Scientific, catalog no. 11875093) supplemented with 10% fetal bovine serum, 1× penicillin-streptomycin-glutamine and 0.1% 2-Mercaptoethanol. IL-33 promoter-luci vector (GeneCopoeia, Rockville, Md., catalog no. MPRM3494-PG02) or Control-luci vector (deletion form of IL-33 promoter region from IL-33 promoter-luci vector) or Poly (I:C) (Invivogen, San Diego, Calif., catalog no. tlrl-pic) in Pam212 cells were performed using Lipofectamine 2000 (Thermo Fisher Scientific, catalog no. 11668019) according to the manufacturer's instructions.
Cell lysates were prepared in LIPA buffer (Thermo Fisher Scientific, catalog no. 89900) consisting of 1× protease inhibitor cocktail, EDTA-free (Thermo Fisher Scientific, catalog no. A32955). […]
For orientation: Immunoblotting shows a protein as a band on a membrane.

`O=C(O)C[C@H](O)C[C@H](O)/C=C/c1c(C2CC2)nc2ccccc2c1-c1ccc(F)cc1` [pitavastatin]: the “Poly (I:C) induced p-IRF3 bindings to Il33 promoter region” value in assay [1] was “significantly reduced”. The “endogenous IL-33 protein level” value in assay [2] is “decreased”.
